Measurements taken from patent US20240382473A1, “Combination Therapies for Treatment of Myelodysplastic Syndrome” (priority 2019, published 2024).

What was measured:
MDS BMMC's = test: Cell viability following 48 hours treatment (FIGS. 26A/26B; IC50 in MDS BMMC's); format: cell-based
Description: (§1) Additionally, an assay has been tested in bone marrow mononuclear cells (BMMCs) from AML and MDS patients to examine MCL-1 dependency prior to therapy with alvocidib. […] Combination studies are currently under investigation to determine whether enhanced anti-cancer activity is observed through pharmacologic downregulation of MCL-1 via CDK9 inhibition by alvocidib and upregulation of the MCL-1 antagonist NOXA after HMA exposure.
FIGS. 26A and 26B are scatter plots showing cell viability following 48 hours treatment at indicated concentrations of azacytidine (alone) or alvocidib (alone). FIG. 26A is a plot of cell viability following 48-hour treatment against indicated concentrations of azacitidine. […] FIG. 26B is a plot of cell viability following 48-hour treatment against indicated concentrations of alvocidib.

[1] = tested on: MCL-1 expression in MV4-11 cells; test: Western blot of MCL-1 protein in MV4-11 cells treated with alvocidib; format: cell-based
Description: FIG. 9 is an illustration of a proposed mechanism by which alvocidib inhibits expression of MCL-1 by inhibiting CDK9.

[2] = tested on: RNA pol II phosphorylation and MCL-1 expression in MV-4-11 AML cells; test: Flow cytometry of RNA pol II phosphorylation and MCL-1 expression in MV-4-11 AML cells; format: cell-based; conditions: 24-hour treatment
[3] = tested on: pRpb1 and MCL1 in primary MDS BMMCs; test: pRpb1 and MCL1 levels in MDS patient cells after alvocidib; format: cell-based, human; conditions: relative to DMSO
Description: It has been shown that alvocidib reduces RNA pol II phosphorylation and MCL-1 expression in vitro. […] Phospho-RNA polymerase (pRpb1) and MCL-1 (MCL1) levels are decreased after alvocidib treatment in MDS patient cells (FIG. 23). Levels are indicated as a percent relative to levels measured for a DMSO treated sample. Numbers in parenthesis represent concentrations in nM for each alvocidib (Alvo) treatment.
as §1, with “alvocidib. Approximately 25% of AML patient BMMCs and 60% of MDS patient BMMCs are MCL-1 dependent. Azacitidine and decitabine increased NOXA expression in AML cell line models.” for “alvocidib.”

[4] = tested on: MCL-1 and NOXA expression in MV-4-11 cells; test: Western blot of NOXA and MCL-1 in MV-4-11 cells, alvocidib and azacytidine; format: cell-based; conditions: with azacytidine
Description: FIG. 28A is an overview of an experimental used to evaluate an interaction between alvocidib and azacytidine with regard to MCL-1 and NOXA expression. FIG. 28B is a Western blot showing NOXA and MCL-1 levels in cells treated according to the experiment summarized in FIG. 28A at indicated drug concentrations.

MOLM13 xenograft model = test: MOLM13 xenograft model, tumor volume and survival; format: in vivo; conditions: aggressive daily dosing, tumor bearing mice
Procedure: FIGS. 31A and 31B show results from sequential dosing of alvocidib and HMAs in a MOLM13 model for MDS/sAML. HMA dosing sensitized AML cells to sequential dosing and improved survival in vivo. Alvocidib, azacytidine, and decitabine activity were assessed in the MOLM13 xenograft model. FIG. 31A is a plot of tumor volume over time and FIG. 31B is a plot of percent survival over time. Mice were dosed with alvocidib, qdx2, and/or an HMA, qdx3 on a weekly basis. Doses are indicated in mg/kg (mpk).
[…] show results from aggressive daily dosing of alvocidib and decitabine in the MOLM13 model. Tumor bearing mice were treated. Doses and schedule are indicated. FIG. 32A plots tumor volume following treatment and FIG. 32B plots body weight following treatment.

[5] = tested on: luciferase expressing MV4-11 model; test: Luciferase expressing MV4-11 AML xenograft model; format: in vivo; conditions: alvocidib alone
THP-1 AML model = test: THP-1 AML xenograft model; format: in vivo; conditions: alvocidib alone
OCI AML3 xenograft model = test: OCI AML3 xenograft model; format: in vivo
[6] = tested on: NOXA and MCL-1 expression in CD34+ MDS BMMNC; test: Pharmacodynamic marker study, Western blot NOXA/MCL-1 in CD34+ MDS BMMNC; format: cell-based, human; conditions: Patient 0219; azacitidine 0.3 or 0.6 μM 24 hours, then alvocidib 0.1 μM 6 hours
Procedure: A pharmacodynamic maker study was performed for azaditidine and alvocidib using MDS patient-derived BMMNC from Cureline. CD34^+ cells were isolated by CD34 MicroBead Kit (Miltenyi Biotec) and cultured in StemSpan™ SFEM II with StemSpan™ CD34^+ Expansion Supplement (STEMCELL Technologies). […] Protein was extracted using RIPA buffer with protease and phosphatase inhibitor cocktail. Protein expression was assessed by Western blot using NOXA (CST, Cat #14766S), MCL-1(CST, Cat #392245) and β-actin (CST, Cat #4967L) antibodies. Apoptotic activity was assessed by Caspase-Glo® 3/7 assay (Promega).

CD34+ MDS BMMNC [7] = test: Caspase-Glo 3/7 apoptotic activity in CD34+ MDS BMMNC (Example 17 efficacy study); format: cell-based, human; conditions: azacitidine 100 nM 24 hours, alvocidib 100 nM 24 hours
Procedure: CD34^+ cells were isolated by CD34 MicroBead Kit (Miltenyi Biotec) and cultured in StemSpan™ SFEM II with StemSpan™ CD34^+ Expansion Supplement (STEMCELL Technologies). […] Apoptotic activity was assessed by Caspase-Glo® 3/7 assay (Promega).

clinical = conditions: human, in vivo; for AUC(0-t): 75 mg/m2, AUC(0-27); for Cmax: 75 mg/m2, Cmax; for Tmax: 75 mg/m2, Tmax
Description: Plasma PK analyses for alvocidib and known metabolites, if any, and dose proportionality will be determined on Days 8 and 9 (for patients receiving alvocidib following DEC) or Days 10 and 11 (for patients receiving alvocidib following AZA) of Cycle 1 in all patients enrolled in the study, according to Table 5 or Table 6: […]

AML patients = test: NOXA priming of pre-treatment bone marrow versus response to alvocidib in AML patients; format: in vivo, human; conditions: patients with pre-treatment bone marrow NOXA priming greater than or equal to 40%
Description: Furthermore, high NOXA Priming (MCL-1 dependence) is predictive of alvocidib sensitivity in AML patients. […] FIG. 16A is a box-plot showing that high NOXA priming (MCL-1 dependence) is predictive of alvocidib sensitivity in acute myeloid leukemia (AML) patients. The box-plot plots NOXA priming in complete remission and no response patient bone marrow samples taken from patients prior to being treated with alvocidib. […] NR=no response). The box-plot plots NOXA priming in complete remission and no response patient bone marrow samples taken from patients prior to being treated with 7+3 chemotherapy.

circulating blasts = conditions: three-day dosing, in the clinic; cited from earlier work
[8] = tested on: NOXA expression in MV-4-11 AML cells / MOLM13 cells; test: Western blot for NOXA expression in AML cell lines treated with HMAs; format: cell-based
Procedure: (§2) In the decitabine experiments (FIGS. 24 and 36), the MV-4-11 AML cell line and MOLM13 cell line model for secondary AML (prior MDS) were used. MV-4-11 AML cells (or MOLM13 cells as indicated) were treated with indicated concentrations of decitabine for indicated times, and protein was assessed by Western blot for NOXA expression. […] FIGS. 24A and 24C are Western blots and FIG. 24B is a bar graph of mRNA concentrations. […] The Western blot was prepared from a MOLM13 xenograft treated with decitabine at 1 mg/kg IP for 24 hours.
In the azacitidine experiments (FIG. 25), MV-4-11 AML cells were treated with indicated concentrations of azacitidine for 24 hours and protein assessed by Western blot for NOXA expression.

MV-4-11 cells = test: MCL-1 dependency assay (T-MS1, Dioc6) in MV-4-11 cells; format: cell-based; conditions: for MCL-1 dependency versus DMSO controls: 24 hours
CD34+ MDS BMMNC [9] = test: Caspase-Glo 3/7 apoptotic activity in CD34+ MDS BMMNC (Example 16); format: cell-based, human; conditions: then DMSO or alvocidib 0.1 μM 6 hours
Procedure: A pharmacodynamic maker study was performed for azaditidine and alvocidib using MDS patient-derived BMMNC from Cureline. CD34^+ cells were isolated by CD34 MicroBead Kit (Miltenyi Biotec) and cultured in StemSpan™ SFEM II with StemSpan™ CD34^+ Expansion Supplement ([…] Technologies). Cells were seeded in 6-well plates and treated with DMSO or azacitidine (0.3 or 0.6 μM) for 24 hours. Following that, DMSO or alvocidib (0.1 μM) was sequentially added, and the cells were incubated for an additional 6 hours. Protein was extracted using RIPA buffer with protease and phosphatase inhibitor cocktail. Protein expression was assessed by Western blot using NOXA (CST, Cat #14766S), MCL-1(CST, Cat #392245) and β-actin (CST, Cat #4967L) antibodies. Apoptotic activity was assessed by Caspase-Glo® 3/7 assay (Promega).

[10] = tested on: MDS patient-derived BMMCs (blasts); test: T-MS1 based MCL-1 dependency assay on MDS patient blasts; format: cell-based, human
Procedure: To determine the patients' cells' dependency on MCL-1 anti-apoptotic protein for survival, the MCL-1 binding protein, MS I with N-terminal modifications for improved cell penetrance was utilized. The modified peptide is referred to as T-MS1. When added to cells, T-MS1 crosses the plasma membrane and antagonizes MCL-I, leading to mitochondrial outer membrane […] (MOMP) formation and subsequently, depolarization of the mitochondria. Mitochondrial potential was assessed using the cationic dye, DiOC2(3), which accumulates in negatively-charged, healthy mitochondria. Fresh or previously frozen MDS bone marrow cells were treated with azacitidine or DMSO control in media containing RPMI+10% FBS+pen/strep for 48 hours prior to being interrogated with T-MS1. After blocking and staining with antibody cocktail to gate on MDS blasts, T-MS1 was added and cells were incubated for 30 minutes at 37° C. After T-MS1 treatment, cells were washed and stained with cationic dye, Dioc6, for 90 minutes to assess mitochondrial depolarization via flow cytometric analysis. Priming % was calculated using the formula: […]
For concordance with prior priming values, an additional calibration factor of 1.6 was applied to patient priming values.
To determine the patients' cells' MCL-1 dependency following treatment with azacitidine, MDS patient-derived BMMCs were treated with DMSO, 0.3 μM azacitidine, 1 μM azacitidine or 2.5 μM azacitidine for 48-72 hours before being assessed by the MCL-1 dependency assay.

[11] = tested on: NOXA expression in MOLM13 xenograft; test: Western blot for NOXA from MOLM13 xenograft treated with decitabine; format: in vivo; conditions: decitabine 1 mg/kg IP, 24 hours
Procedure: as §2

SMILES: CN1CC[C@H](c2c(O)cc(O)c3c(=O)cc(-c4ccccc4Cl)oc23)[C@H](O)C1 [alvocidib]
- IC50 (MDS BMMC's): ~0.1 µM
- MCL-1 protein in response to alvocidib (Western blot) ([1]; FIG. 8 left panel): dose-dependent decrease
- duration of knock-down of MCL-1 ([1]; MV4-11 cells, 80 nM alvocidib): exceeds 96 hours
- inhibition of RNA pol II phosphorylation and MCL-1 expression [2]: dose-dependent
- Phospho-RNA polymerase (pRpb1) and MCL-1 (MCL1) levels [3]: decreased
- Phospho-RNA polymerase (pRpb1) and MCL-1 (MCL1) levels ([3]; listed as Alvocidib): dose dependent reduction
- MCL-1 and NOXA levels (Western blot) [4]: inhibits upregulation of MCL-1 by azacytidine without affecting NOXA induction
- tumor growth inhibition (% TGI) (MOLM13 xenograft model): 75.8%
- total flux count [5]: complete abrogation
- TGI (THP-1 AML model): 30.8%
- tumor growth inhibition (% TGI) (OCI AML3 xenograft model): 55.0%
- NOXA and MCL-1 protein expression (Western blot) versus DMSO [6]: suppressed MCL-1 expression
- increase of apoptotic activity versus DMSO (CD34+ MDS BMMNC [7]; Patient 0219): 31%
- increase of apoptotic activity versus DMSO (CD34+ MDS BMMNC [7]; Patient 1115 (high-risk MDS)): 240%
- decrease of AUC going from cohort 4 to cohort 5 (clinical): 47.6%
- decrease of Cmax going from cohort 4 to cohort 5 (clinical): 15.4%
- AUC(0-t) (clinical): 3410 ng·h/mL
- AUC(0-t) (clinical; Mean): 4080 ng·h/mL
- Cmax (clinical): 868 ng/mL
- Cmax (clinical; Mean): 924 ng/mL
- half-life (clinical; 75 mg/m2, T1/2): 8.23 h
- half-life (clinical; 75 mg/m2, T1/2, Mean): 8 h
- Tmax (clinical): 0 h
- Tmax (clinical; Mean): 0 h
- complete recovery rate (AML patients): 100%
- average reduction of circulating blasts (circulating blasts): greater than 75%

SMILES: Nc1ncn([C@@H]2O[C@H](CO)[C@@H](O)[C@H]2O)c(=O)n1 [azacitidine]
- IC50 (MDS BMMC's): ~1 µM
- NOXA expression in AML cell line models [8]: increased
- NOXA expression (Western blot), azacitidine ([8]; MV-4-11 AML cells, 24 hours): dose-dependent increase
- MCL-1 dependency versus DMSO controls (MV-4-11 cells): sensitized MV4-11 cells to MCL-1 dependent apoptosis
- MCL-1 dependency versus DMSO controls (MV-4-11 cells; listed as azacytidine): increased MCL-1 dependency
- MCL-1 dependence (MV-4-11 cells; azacitidine 2.5 μM): 29.6%
- NOXA and MCL-1 protein expression (Western blot) versus DMSO [6]: induced NOXA expression
- increase in apoptotic activity versus DMSO (CD34+ MDS BMMNC [9]; azacitidine 0.3 μM 24 hours): 52%
- increase in apoptotic activity versus DMSO (CD34+ MDS BMMNC [9]; azacitidine 0.6 μM 24 hours): 62%
- increase of apoptotic activity versus DMSO (CD34+ MDS BMMNC [7]; Patient 0219): 20%
- increase of apoptotic activity versus DMSO (CD34+ MDS BMMNC [7]; Patient 1115 (high-risk MDS)): 35%
- priming trend across MDS bone marrow samples ([10]; 0.3, 1 and 2.5 μM azacitidine): dose-dependent increase in priming
- percent priming ([10]; Patient 0216's blasts, 1 μM azacitidine): 115.3%
- percent priming ([10]; Patient 0216's blasts, 2.5 μM azacitidine): 132.1%
- percent priming ([10]; Patient 0515's blasts, 1 μM azacitidine): 82.1%
- percent priming ([10]; Patient 0515's blasts, 2.5 μM azacitidine): 81.6%
- percent priming ([10]; Patient 1060's blasts, 72-hour, 0.3 μM azacitidine): 45.8%
- percent priming ([10]; Patient 1060's blasts, 72-hour, 1 μM azacitidine): 60.9%
- maximum increase in priming ([10]; one patient sample): 35%

SMILES: Nc1ncn([C@H]2C[C@H](O)[C@@H](CO)O2)c(=O)n1 [decitabine]
- NOXA expression in AML cell line models [8]: increased
- NOXA expression (Western blot), decitabine ([8]; MV-4-11 AML cells or MOLM13 cells, indicated times): time-dependent increase
- NOXA expression (Western blot) in xenograft [11]: increase in NOXA expression
- tumor growth inhibition (% TGI) (MOLM13 xenograft model): 58.6%
